Measurements: US20260070921A1, “COMPOUND, ENDOPLASMIC RETICULUM STRESS INHIBITOR, PHARMACEUTICAL PRODUCT, OPHTHALMIC AGENT, EYE DROPS, COMPOSITION, AND METHOD FOR PRODUCING COMPOUND” (KYOTO UNIVERSITY, priority 2022, published 2026)

How the values were obtained:
[1] = test system: mouse embryonic fibroblasts (MEFs); assay: Tunicamycin assay using autophagy-deficient cells; type: cell-based; details: for Rescue from ER stress-induced cell death: wild-type MEFs, compound 1 100 μM, compound 6 25 μM, 18 h, tunicamycin 5.0 μg/mL 48 h
Description: Cellular protein aggregates are often cleared by cellular mechanisms, such as autophagy and ubiquitin-proteasome system. To examine the importance of these proteolytic pathways in the activity of compounds 1 and 6, their ability to inhibit tunicamycin-induced cytotoxicity in the presence of an autophagy or proteasome inhibitor (bafilomycin A1 or MG132, respectively) was measured. FIG. 9 is a graph showing the results of a tunicamycin assay using an autophagy or proteasome inhibitor. Cells were pre-incubated with compound 1 or compound 6 for 16 hours and then treated with tunicamycin (5.0 μg/mL) in the presence or absence of a specified substance for 48 hours. FIG. 9(A) is a graph showing measurements in the presence or absence of bafilomycin A1 (Baf A1, autophagy inhibitor). FIG. 9(B) is a graph showing measurements in the presence or absence of MG132 (proteasome inhibitor). Error bars represent s.d. (n=3). Statistical analysis was performed according to the one-way ANOVA and Dunnett's test. *P<0.05; n.s.: not significant. […] The concentrations used of the inhibitors were confirmed to be non-toxic to cells (FIGS. 31 and 32). To further study the role of autophagy, autophagy-deficient atg7^−/− and p62^−/− mouse embryonic fibroblasts (MEFs) were subjected to a tunicamycin assay. FIG. 10 is a graph showing the results of the tunicamycin assay using the autophagy-deficient cells. Wild-type (wt), atg7^−/−, or p62^−/− mouse embryonic fibroblasts (MEFs) were treated with molecule 1 (100 μM) or molecule 6 (25 μM) for 18 hours and then incubated with tunicamycin (5.0 μg/mL) for 48 hours. Error bars represent s.d. (n=3). Statistical analysis was performed according to the one-way ANOVA and Dunnett's test. *P<0.05, **P<0.01. ATG7 is an E1-like enzyme important for phagophore expansion, and p62 is an autophagy receptor for ubiquitinated substrates (Reference Material 20 below). Wild-type (wt), atg7^−/−, or p62^−/− MEF cells were treated with compound 1 or compound 6 for 18 hours, followed by treatment with tunicamycin (5.0 μg/mL) for 48 hours. […] Nat Rev Mol Cell Bio 2018, 19 (6), 349-364. https://doi.org/10.1038/s41580-018-0003-4.

[2] = test system: HEK293 cells; assay: Fluorescence imaging of self-assemblies in living cells (DCVJ); type: cell-based; details: DCVJ 1.0 μM
Description: HEK293 cells were incubated with compound 1, 4, 5, or 6 (25 or 100 μM) in the presence of 1.0 μM DCVJ in DMEM (10% FBS). Fluorescence and bright-field images were taken with a CV1000 confocal microscope equipped with a 40× objective lens (Yokogawa Electric Corporation).
The ability of compound 1 and its derivatives, compounds 4 to 6, to form assemblies was also monitored in living cells. […] HEK293 cells were treated with compound 1, 4, 5, or 6 (25 μM or 100 μM) and 1.0 μM of DCVJ for 8 hours. Fluorescence and bright-field images were taken with a CV1000 confocal microscope. HEK293 cells were treated with compound 1, 4, 5, or 6 (25 or 100 μM) and DCVJ (1.0 μM) for 8 hours and observed with a confocal microscope. […] The self-assembling ability of the molecules of compound 6 may be due to its cellular activity at that concentration, even at 25 μM. […] To further support the importance of self-organization formation in cellular activity, dose-response curves for compounds 1 and 6 were determined. The biological activity of the compounds' molecular assembly is expected to be more cooperative than that of the monomer and to show a steeper dose-response curve (Reference Material 18 below). […] Compound 6 is referred to as “selfonamide” below. […] P. A High-Throughput Screen for Aggregation-Based Inhibition in a Large Compound Library. J Med Chem 2007, 50 (10), 2385-2390. https://doi.org/10.1021/jm061317y.

[3] = Dynamic light scattering (DLS) of self-assemblies; type: physicochemical
From the text: In the graphs on the left, the vertical axis “Z-ave. (nm)” represents the average particle size. In the graphs on the right, the vertical axis “Derived Count Rate (kcps)” represents the derived count rate. The horizontal axis represents the molar concentration (PM) of PBS (pH of 7.4) and DMEM (10% FBS). Error bars represent s.d. (n=3).
“Z-ave.” represents the average size of particles. Error bars represent s.d. (n=3).
“Z-average” represents the average size of particles. Error bars represent s.d. (n=3).

[4] = test system: CHOP; assay: Quantitative RT-PCR of ER stress-related genes, CHOP; type: cell-based; details: pretreatment 10 h, tunicamycin 1.0 μg/mL 24 h
Description: First, total RNA was isolated using ISOGEN (tradename of Nippon Gene Co., Ltd.). cDNA was prepared using a Prime Script (trade name) first-strand cDNA synthesis kit (TaKaRa). qRT-PCR was performed with Fast SYBR Green Master Mix (Thermo Fisher) on a QuantStudio 3 real-time PCR system (Thermo Fisher). The copy number of each transcript is expressed relative to β-actin. The sequences of the primers (forward and reverse) are as follows: […]
The ability to alleviate endoplasmic reticulum (ER) stress of compound 1 was examined in HEK293 cells. FIGS. 1 and 2 show the biological activity of compound 1 for decreasing cytotoxicity under ER stress. […] Error bars represent s.d. (n=3). Statistical analysis was performed according to one-way ANOVA and a Dunnett's test using R software. […] To further study the effect of compound 1 on ER stress, mRNA levels of typical UPR genes, such as ATF4, s-XPB1, CHOP, BiP, and ERDJ4, were examined. In addition to compound 1, compound 6 was also tested in the same experiment. […] The quantitative RT-PCR was performed according to the method described above. HEK293 cells were treated with compound 1 (100 μM) for 10 hours and then incubated with tunicamycin (1.0 μg/mL) for 24 hours. Isolated RNA samples were subjected to reverse transcription and quantitative RT-PCR. […]

Compound: NS(=O)(=O)c1ccc(Nc2ccn3c(n2)nc(=O)c2sc4cc(F)ccc4c23)cc1 [compound 1]
- Ability to rescue from ER stress-induced cell death ([1]; atg7−/− MEFs): severely impaired
- Ability to rescue from ER stress-induced cell death ([1]; p62−/− MEFs): severely impaired
- Rescue from ER stress-induced cell death [1]: rescued
- Fluorescent particles within cells ([2]; 100 μM, after 8 hours): fluorescent particles were observed within the cells
- Average size of the assemblies (diameter) ([3]; DMEM (10% FBS), 100 μM): ~200 nm
- Average size of the assemblies (diameter) ([3]; PBS (pH of 7.4), 100 μM): about 700 nm
- Increase in CHOP mRNA levels [4]: completely suppressed

Compound: COc1ccc2c(c1)sc1c(=O)nc3nc(Nc4ccc(S(N)(=O)=O)cc4)ccn3c12 [compound 6]
- Ability to rescue from ER stress-induced cell death ([1]; atg7−/− MEFs): severely impaired
- Ability to rescue from ER stress-induced cell death ([1]; p62−/− MEFs): severely impaired
- Rescue from ER stress-induced cell death [1]: rescued
- Assemblies within cells ([2]; 25 μM, 8 h): showed detectable assemblies within cells
- Average size of the assemblies (diameter) ([3]; cell culture medium, 25 μM): 130 nm
- Increase in CHOP mRNA levels [4]: completely suppressed
